Laboratory results published in publication PMC8811960, “A Novel 2-Carbon-Linked Dimeric Artemisinin With Potent Antileukemic Activity and Favorable Pharmacology” (Frontiers in Oncology, 2022).
Like-named read-outs stand apart in the source and are kept apart here.

Assays:
[1] = tested on: MOLM14 cells; experiment: Total cellular ROS (CM-H2DCFDA flow cytometry); type: cell-based, human; settings: MOLM14, 200 nM, 18h
Protocol: […] Cells were then treated with ART631 (200 nM) or DMSO control for 18h, with subsequent analysis by flow cytometry. Western blotting and quantitative reverse transcription PCR (qRT-PCR) to assess for molecular markers of ROS-mediated apoptosis were performed as previously described ([20]).
Figure 4 ART631 elevated ROS and CHOP levels and reduced MCL1 expression in MOLM14 AML cells. […] They were then analyzed by flow cytometry. Graph represents %CM-H2DCFDA fluorescence compared to vehicle (DMSO) control treated cells. Error bars represent SD from 3 independent experiments. (B) MOLM14 AML cells were treated for 18h with vehicle, AS (10 uM), ART838 (200 nM), ART631 (200 nM), cytarabine (AraC; 150 nM), or SOR (5 uM). Protein was isolated and western blotted for MCL1, BCL2, CHOP, and β-actin. (C) MOLM14 cells were treated as in (B) for 18h, total RNA isolated, cDNA synthesized, and SYBR Green qRT-PCR performed in triplicates. Ct values were normalized to housekeeping gene GAPDH and fold change shown relative to vehicle (DMSO) control. Error bars represent SD from 3 independent experiments done in triplicate.

[2] = tested on: MV4;11 AML xenografts; experiment: luc-labeled MV4;11 AML cell line xenograft; type: in vivo, NRG mice; settings: MV4;11 xenograft, 15 mg/kg/d PO, 5 days on, 9 days off, 5 cycles
From the text: (§1) Immunodeficient NOD-Rag1^nullIL2rg^null (NRG) mice were purchased from Jackson Laboratory (Bar Harbor, ME), bred and housed at the University of Maryland Baltimore. Similar to our previous publication ([20]). mice were transplanted IV with luc-labeled human AML cell lines or cryopreserved AML patient cells on day -10, and baseline total body luminescence was quantified on day 0 by Xenogen bioluminescence imaging (Xenogen IVIS Spectrum; PerkinElmer, Waltham, MA). Mice were allocated to treatment groups so that each group had similar average day 0 luminescence, then groups were administered drugs per oral (PO; gavage). Luminescence of each mouse was assessed over time and compared with that mouse’s day 0 luminescence (fold-change AML burden). Clinical behavior, appearance, weight, and survival were also monitored.
(§2) Using our previously determined 5-day MTD SAV drug schedule (i.e. 5-day treatment cycles consisting of 15 mg/kg/d ART631 combined with 150 mg/kg/d VEN and 30 mg/kg/d SOR, followed by 9 days off drug; schematic in Figure 7A ), we assessed treatment of established human luc-labeled MV4;11 ( Figures 7B–D ) and MOLM14 AML ( Figures 8A–C ) cell line xenografts with VEN plus SOR plus ART631 in NRG mice ( Figures 7B , 8A ). […]

[3] = tested on: 10 human AML cell lines; experiment: alamarBlue growth inhibition, panel of 10 human AML cell lines; type: cell-based
Protocol: (§3) Cytotoxicity was assessed using alamarBlue assays (Life Technologies, Grand Island, NY) following manufacturer’s guidelines. Cell death was verified by Annexin V/7-aminoactinomycin D (7AAD) staining (BioLegend, San Diego, CA) per manufacturer’s guidelines.
Cell lines with adverse risk cytogenetic and molecular features, e.g. MLL rearrangements (ML2, MOLM14, MV4;11, THP1), FLT3-ITD (MOLM14, MV4;11), TP53 mutations (KG1a, ML2, THP1, U937), and NRAS/KRAS mutations (ML2, THP1), were among those exquisitely sensitive to ART631, with IC50s < 50 nM. The K562 cell line was the only exception, as it was resistant to all 3 of these ARTs. Based on this in vitro activity data combined with the drug stability data described below, ART631 was prioritized over ART576 for further in vitro and in vivo antileukemic efficacy experiments here ( Table 2 ).

[4] = tested on: KG1a; experiment: alamarBlue growth inhibition, KG1a; type: cell-based; settings: Homo sapiens, KG-1a, 48h, mean of 2 independent assays ± SD
Protocol: as §3

[5] = tested on: HEL; experiment: alamarBlue growth inhibition, HEL; type: cell-based; settings: Homo sapiens, 48h, mean of 2 independent assays ± SD
Protocol: as §3

[6] = tested on: MOLM14 AML xenografts; experiment: luc-labeled MOLM14 AML cell line xenograft; type: in vivo, NRG mice; settings: 15 mg/kg/d PO, 5 days on, 9 days off, 5 cycles
From the text: as §1, §2

**Q.** For `C=CCO/N=C(/C[C@H]1O[C@@H]2O[C@@]3(C)CC[C@H]4[C@H](C)CC[C@@H]([C@H]1C)[C@@]24OO3)[C@H]1O[C@@H]2O[C@@]3(C)CC[C@H]4[C@H](C)CC[C@@H]([C@H]1C)[C@@]24OO3` [ART631], which “total cellular ROS levels” value [1] is on record?
**A.** substantially increased

**Q.** What about the “antileukemic activity of monotherapy” value [2] of the same compound?
**A.** no activity

**Q.** What about the IC50 ([3]; Homo sapiens, ML2, MOLM14, MV4;11, THP1, KG1a, U937, read-out: IC50s in cell lines with adverse risk cytogenetic and molecular features) of the same compound?
**A.** < 50 nM

**Q.** And the “number of human AML cell lines whose growth was inhibited” value ([3]; of 10 human AML cell lines tested)?
**A.** 9

**Q.** And the IC50 ([3]; range over the inhibited cell lines of 10 human AML cell lines, read-out: IC50 range)?
**A.** 20 to 45 nM

**Q.** What about the IC50 [4] of the same compound?
**A.** 29 ± 2 nM

**Q.** What about the IC50 [5] of the same compound?
**A.** 45 ± 5 nM

**Q.** And the “antileukemic activity of monotherapy” value [6]?
**A.** no activity
